Legend:
Assay in all cases: relative viability (nuclei count vs DMSO), 5 days (fraction); higher = more cells survive
[1] = test system: SW 1573
Procedure, shortened: (§1)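 Each reported value is a median over duplicate plates. It expresses relative viability: treated-well nuclei count divided by vehicle-well nuclei count. Lung cancer cell lines in 1536-well plates were dosed by pin tool a day after seeding, alone with one drug or with a fixed anchor-drug dose plus five library-drug doses (not always all listed) in √10 steps, and nuclei were counted after 5 days.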

[2] = test system: EMC-BAC-2
Procedure, shortened: as §1

[3] = test system: NCI-H358
Procedure, shortened: as §1

[4] = test system: LU99A
Procedure, shortened: as §1

[5] = test system: NCI-H1395
Procedure, shortened: as §1

[6] = test system: LC-2-ad
Procedure, shortened: as §1

[7] = test system: NCI-H2023
Procedure, shortened: as §1

[8] = test system: NCI-H1734
Procedure, shortened: as §1

[9] = test system: NCI-H2126
Procedure, shortened: as §1

[10] = test system: SW 900
Procedure, shortened: as §1

[11] = test system: NCI-H1915
Procedure, shortened: as §1

[12] = test system: NCI-H1437
Procedure, shortened: as §1

[13] = test system: HCC-44
Procedure, shortened: as §1

[14] = test system: HCC-15
Procedure, shortened: as §1

[15] = test system: NCI-H727
Procedure, shortened: as §1

[16] = test system: NCI-H2170
Procedure, shortened: as §1

[17] = test system: NCI-H1755
Procedure, shortened: as §1

[18] = test system: NCI-H3122
Procedure, shortened: as §1

[19] = test system: HOP-62
Procedure, shortened: as §1

[20] = test system: BEN
Procedure, shortened: as §1

[21] = test system: NCI-H650
Procedure, shortened: as §1

With `CCNC(=O)c1noc(-c2cc(C(C)C)c(O)cc2O)c1-c1ccc(CN2CCOCC2)cc1` [Luminespib] + Nc1ncn([C@H]2C[C@H](O)[C@@H](CO)O2)c(=O)n1 [Decitabine] (partner 2 µM) the relative viability ([1]; first compound 0.002 µM) was 0.569, the relative viability ([1]; first compound 0.006325 µM) was 0.456 and the relative viability ([1]; first compound 0.02 µM) was 0.159. The relative viability ([1]; first compound 0.06325 µM) was 0.072, the relative viability ([1]; first compound 0.2 µM) was 0.0827 and the relative viability ([2]; first compound 0.002 µM) was 0.995. It also gave a relative viability ([2]; first compound 0.02 µM) of 0.783, a relative viability ([2]; first compound 0.06325 µM) of 0.564 and a relative viability ([2]; first compound 0.2 µM) of 0.237. The relative viability ([3]; first compound 0.002 µM) was 0.217, the relative viability ([3]; first compound 0.006325 µM) was 0.217 and the relative viability ([3]; first compound 0.02 µM) was 0.178. For the same compound, the relative viability ([3]; first compound 0.06325 µM) was 0.0688, the relative viability ([3]; first compound 0.2 µM) was 0.0584 and the relative viability ([4]; first compound 0.002 µM) was 0.953. The relative viability ([4]; first compound 0.006325 µM) was 0.781, the relative viability ([4]; first compound 0.02 µM) was 0.5 and the relative viability ([4]; first compound 0.06325 µM) was 0.855. It also gave a relative viability ([4]; first compound 0.2 µM) of 0.879, a relative viability ([5]; first compound 0.002 µM) of 0.745 and a relative viability ([5]; first compound 0.006325 µM) of 0.694. The relative viability ([5]; first compound 0.02 µM) was 0.634, the relative viability ([5]; first compound 0.06325 µM) was 0.382 and the relative viability ([5]; first compound 0.2 µM) was 0.357. The relative viability ([6]; first compound 0.002 µM) was 0.886, the relative viability ([6]; first compound 0.006325 µM) was 0.766 and the relative viability ([6]; first compound 0.02 µM) was 0.754. For the same compound, the relative viability ([6]; first compound 0.06325 µM) was 0.778, the relative viability ([6]; first compound 0.2 µM) was 0.786 and the relative viability ([7]; first compound 0.002 µM) was 0.242. The relative viability ([7]; first compound 0.006325 µM) was 0.218, the relative viability ([7]; first compound 0.02 µM) was 0.136 and the relative viability ([7]; first compound 0.06325 µM) was 0.0602. The relative viability ([7]; first compound 0.2 µM) was 0.0539, the relative viability ([8]; first compound 0.002 µM) was 0.489 and the relative viability ([8]; first compound 0.006325 µM) was 0.469. For the same compound, the relative viability ([8]; first compound 0.02 µM) was 0.448, the relative viability ([8]; first compound 0.06325 µM) was 0.251 and the relative viability ([8]; first compound 0.2 µM) was 0.159. The relative viability ([9]; first compound 0.002 µM) was 0.573, the relative viability ([9]; first compound 0.006325 µM) was 0.587 and the relative viability ([9]; first compound 0.06325 µM) was 0.593. It also gave a relative viability ([9]; first compound 0.2 µM) of 0.507, a relative viability ([10]; first compound 0.002 µM) of 0.478 and a relative viability ([10]; first compound 0.006325 µM) of 0.472. The relative viability ([10]; first compound 0.02 µM) was 0.417, the relative viability ([10]; first compound 0.06325 µM) was 0.156 and the relative viability ([10]; first compound 0.2 µM) was 0.159. For the same compound, the relative viability ([11]; first compound 0.002 µM) was 0.258, the relative viability ([11]; first compound 0.006325 µM) was 0.278 and the relative viability ([11]; first compound 0.02 µM) was 0.254. For the same compound, the relative viability ([11]; first compound 0.06325 µM) was 0.24, the relative viability ([11]; first compound 0.2 µM) was 0.21 and the relative viability ([12]; first compound 0.002 µM) was 0.606. The relative viability ([12]; first compound 0.006325 µM) was 0.605, the relative viability ([12]; first compound 0.02 µM) was 0.64 and the relative viability ([12]; first compound 0.06325 µM) was 0.428. For the same compound, the relative viability ([12]; first compound 0.2 µM) was 0.229, the relative viability ([13]; first compound 0.002 µM) was 0.969 and the relative viability ([13]; first compound 0.006325 µM) was 0.953. The relative viability ([13]; first compound 0.02 µM) was 0.959, the relative viability ([13]; first compound 0.06325 µM) was 0.954 and the relative viability ([13]; first compound 0.2 µM) was 0.863. It also gave a relative viability ([14]; first compound 0.002 µM) of 0.695, a relative viability ([14]; first compound 0.006325 µM) of 0.565 and a relative viability ([14]; first compound 0.02 µM) of 0.73. For the same compound, the relative viability ([14]; first compound 0.06325 µM) was 0.144, the relative viability ([14]; first compound 0.2 µM) was 0.14 and the relative viability ([15]; first compound 0.002 µM) was 0.893. The relative viability ([15]; first compound 0.006325 µM) was 0.857, the relative viability ([15]; first compound 0.02 µM) was 0.652 and the relative viability ([15]; first compound 0.06325 µM) was 0.461. The relative viability ([15]; first compound 0.2 µM) was 0.368, the relative viability ([16]; first compound 0.002 µM) was 0.468 and the relative viability ([16]; first compound 0.006325 µM) was 0.456. It also gave a relative viability ([16]; first compound 0.06325 µM) of 0.47, a relative viability ([16]; first compound 0.2 µM) of 0.507 and a relative viability ([17]; first compound 0.002 µM) of 0.673. The relative viability ([17]; first compound 0.006325 µM) was 0.691, the relative viability ([17]; first compound 0.02 µM) was 0.696 and the relative viability ([17]; first compound 0.06325 µM) was 0.719. For the same compound, the relative viability ([17]; first compound 0.2 µM) was 0.649, the relative viability ([18]; first compound 0.002 µM) was 0.474 and the relative viability ([18]; first compound 0.006325 µM) was 0.413. It also gave a relative viability ([18]; first compound 0.02 µM) of 0.29, a relative viability ([18]; first compound 0.06325 µM) of 0.418 and a relative viability ([18]; first compound 0.2 µM) of 0.403. For the same compound, the relative viability ([19]; first compound 0.002 µM) was 0.219, the relative viability ([19]; first compound 0.006325 µM) was 0.297 and the relative viability ([19]; first compound 0.02 µM) was 0.267. The relative viability ([19]; first compound 0.06325 µM) was 0.223, the relative viability ([19]; first compound 0.2 µM) was 0.174 and the relative viability ([20]; first compound 0.002 µM) was 0.84. The relative viability ([20]; first compound 0.006325 µM) was 0.644, the relative viability ([20]; first compound 0.02 µM) was 0.458 and the relative viability ([20]; first compound 0.06325 µM) was 0.306. It also gave a relative viability ([20]; first compound 0.2 µM) of 0.294, a relative viability ([21]; first compound 0.002 µM) of 0.282 and a relative viability ([21]; first compound 0.006325 µM) of 0.354. The relative viability ([21]; first compound 0.02 µM) was 0.307, the relative viability ([21]; first compound 0.06325 µM) was 0.252 and the relative viability ([21]; first compound 0.2 µM) was 0.0854.

Reference: the supplement of paper PMC10307832
